{
  "source": "ChEMBL document CHEMBL1142213",
  "about": "“Mechanism of antimalarial action of the synthetic trioxolane RBX11160 (OZ277)” (Antimicrob Agents Chemother, 2007)",
  "key": {"Oryctolagus cuniculus [1]": {"organism": "Oryctolagus cuniculus", "experiment": "Inhibition of rabbit muscle SERCA at 10 uM"}, "[2]": {"experiment": "Inhibition of Plasmodium falciparum ATP6 expressed in Xenopus laevis oocytes", "type": "cell-based", "conditions": "oocyte"}, "[3]": {"experiment": "Inhibition of Plasmodium berghei SERCA"}, "Oocyte [4]": {"tested_on": "Oocyte", "experiment": "Inhibition of Plasmodium falciparum ATP6 expressed in Xenopus laevis oocytes at 50 uM", "type": "cell-based"}, "Plasmodium falciparum": {"tested_on": "Plasmodium falciparum", "experiment": "Antimalarial activity against Plasmodium falciparum NF54 within 48 hrs", "type": "functional, organism-based", "conditions": "NF54, 48 h"}, "Oryctolagus cuniculus [5]": {"organism": "Oryctolagus cuniculus", "experiment": "Inhibition of rabbit muscle SERCA at 100 uM"}, "Oocyte [6]": {"tested_on": "Oocyte", "experiment": "Abrogation of Plasmodium falciparum ATP6 inhibition expressed in Xenopus laevis oocytes at 10 uM in presence of 100 uM desferioxamine", "type": "cell-based"}, "Oocyte [7]": {"tested_on": "Oocyte", "experiment": "Inhibition of Plasmodium falciparum HT expressed in Xenopus laevis oocytes assessed as D-[U-14C]glucose uptake at 50 uM", "type": "cell-based"}},
  "note": "Active and inactive are the calls of the source. The rule behind the calls is not given here.",
  "data": [
    {"smiles": "C/C=C(/C)C(=O)O[C@H]1C(C)=C2[C@H]([C@@H]1OC(=O)CCCCCCC)[C@@](C)(OC(C)=O)C[C@H](OC(=O)CCC)[C@@]1(O)[C@H]2OC(=O)[C@@]1(C)O", "values": [
      {"measurement": "inhibition", "setting": "Oryctolagus cuniculus [1]", "value": 75, "unit": "%"}
    ]},
    {"smiles": "C[C@@H]1CC[C@H]2[C@@H](C)C(=O)O[C@@H]3O[C@@]4(C)CC[C@@H]1[C@]32OO4", "note": "[ARTEMISININ]", "values": [
      {"measurement": "Ki", "setting": "[2]", "value": 0.079, "unit": "µM"},
      {"measurement": "Ki", "setting": "[3]", "value": 6, "unit": "µM"}
    ]},
    {"smiles": "CC(C)(N)CNC(=O)C[C@H]1CC[C@@]2(CC1)OOC1(O2)C2CC3CC(C2)CC1C3", "note": "(some centres undefined)", "values": [
      {"measurement": "Activity", "setting": "Oocyte [4]", "value": "Active"},
      {"measurement": "Ki", "setting": "[2]", "value": 7.7, "unit": "µM"},
      {"measurement": "IC50", "setting": "Plasmodium falciparum", "value": 0.0016, "unit": "µM"},
      {"measurement": "inhibition", "setting": "Oryctolagus cuniculus [5]", "value": 50, "unit": "%"},
      {"measurement": "Activity", "setting": "Oocyte [6]", "value": "inactive"},
      {"measurement": "Activity", "setting": "Oocyte [7]", "value": "inactive"}
    ]}
  ]
}
